Measurements from US20240287106A1, “Method for Producing Fluorescent Probe Library Using Solid-Phase Extraction and Method of Measuring Enzyme Activity Using Same” (The University of Tokyo, priority 2021, published 2024).
One block for each compound: values may come before it.

Key:
Assay type in all cases: biochemical
CD13 = target: T1, CD13 (Homo sapiens, UniProt P15144); assay: Measurement of human plasma sample using CD13 probe in microdevice; settings: 50 μM probe, 1000 fold dilution plasma; for Fluorescence intensity of human plasma samples, patient with pancreatic cancer compared with healthy subject (CD13 probe): microdevice; for AUC of ROC curve for the number of wells in which CD13 is considered to be enclosed: plasma of 30 patients with pancreatic cancer vs 30 healthy subjects, 37° C. 4 hours, wells >= Average+3SD of background fluorescence
T1 construct: human plasma samples collected from 30 patients with pancreatic cancer and 30 healthy subjects; from tissue; host or cells: human plasma (pancreatic cancer patients and healthy subjects)
Experimental: 1. Arg-PMAC as a CD13 probe was diluted with an assay buffer to 100 μM. The composition of the buffer is 100 mM HEPES-NaOH (pH 7.4), 1 mM MgCl2, 1 mM DTT, 3 mM TritonX-100.
(§1) 2. Next, human plasma samples collected from 30 patients with pancreatic cancer and 30 healthy subjects were diluted 500 times with the above assay buffer, and mixed in an equal amount with the diluted solution of the CD13 probe. At this time, the final concentrations are 50 μM for the CD13 probe and 1000 fold dilution for the human plasma sample.
(§2) 3. The mixed solution was then added to a microdevice, followed by the addition of sealing oil to enclose the solution in each well.
4. The microdevice in which the solution was enclosed was incubated at 37° C. for 4 hours, and then the fluorescence intensity of each well was measured with a fluorescence microscope.

DPP4 = target: T2, DPP4 (Homo sapiens, UniProt P27487); assay: Measurement of human plasma sample using DPP4 probe in microdevice; settings: 50 μM probe, 1000 fold dilution plasma
T2 construct: human plasma samples collected from 30 patients with pancreatic cancer and 30 healthy subjects; from tissue; host or cells: human plasma (pancreatic cancer patients and healthy subjects)
Experimental: 1. Glu-Pro-PMAC as a DPP4 probe was diluted with an assay buffer to 100 μM. The composition of the buffer is 100 mM HEPES-NaOH (pH 7.4), 1 mM MgCl2, 1 mM DTT, 3 mM TritonX-100.
as §1, with “DPP4” for “CD13”
as §2
4. The microdevice in which the solution was enclosed was incubated at 25° C. for 2 hours, and then the fluorescence intensity of each well was measured with a fluorescence microscope.

ENPP3 [1] = target: T3, ENPP3 (Homo sapiens, UniProt O14638); assay: Measurement of human plasma sample using ENPP probe in microdevice; parameters: human plasma samples collected from six patients with pancreatic cancer and six healthy subjects; from tissue; host or cells: human plasma (pancreatic cancer patients and healthy subjects)
T3 sequence (O14638 1-875): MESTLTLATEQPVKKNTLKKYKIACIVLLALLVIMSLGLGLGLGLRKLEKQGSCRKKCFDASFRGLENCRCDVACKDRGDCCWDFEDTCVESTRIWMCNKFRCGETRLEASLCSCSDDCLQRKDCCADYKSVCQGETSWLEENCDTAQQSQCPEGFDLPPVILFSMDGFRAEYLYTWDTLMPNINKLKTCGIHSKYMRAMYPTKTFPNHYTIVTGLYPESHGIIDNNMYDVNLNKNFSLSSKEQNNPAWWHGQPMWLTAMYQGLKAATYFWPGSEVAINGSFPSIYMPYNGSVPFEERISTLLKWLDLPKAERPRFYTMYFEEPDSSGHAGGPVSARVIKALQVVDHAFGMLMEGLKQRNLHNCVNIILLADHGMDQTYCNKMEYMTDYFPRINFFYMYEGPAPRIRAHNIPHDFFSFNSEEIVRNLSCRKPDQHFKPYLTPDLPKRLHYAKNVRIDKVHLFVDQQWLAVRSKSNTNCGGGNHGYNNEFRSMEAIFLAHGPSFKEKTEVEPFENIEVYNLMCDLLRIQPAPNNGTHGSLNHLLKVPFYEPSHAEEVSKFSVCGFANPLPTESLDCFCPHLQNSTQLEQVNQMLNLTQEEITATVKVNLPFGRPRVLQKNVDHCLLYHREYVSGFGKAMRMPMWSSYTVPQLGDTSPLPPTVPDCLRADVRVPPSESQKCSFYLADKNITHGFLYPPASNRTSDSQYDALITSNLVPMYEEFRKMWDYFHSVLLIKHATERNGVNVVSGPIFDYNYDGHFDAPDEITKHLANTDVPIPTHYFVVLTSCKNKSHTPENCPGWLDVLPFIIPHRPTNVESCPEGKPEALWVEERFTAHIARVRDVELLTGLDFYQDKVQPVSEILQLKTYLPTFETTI
Experimental: 1. PMUM-dCMP as an ENPP probe was diluted with an assay buffer to 200 μM. The composition of the assay buffer is 100 mM Tris-HCl (pH 9.3), 1 mM MgCl2, 0.5% (w/v) CHAPS.
as §1, with “six” for “30”, “250” for “500”, “ENPP” for “CD13”, “100” for “50”, “500” for “1000”
as §2
4. The microdevice in which the solution was enclosed was incubated at 25° C. for 40 minutes, and then the fluorescence intensity of each well was measured with a fluorescence microscope.
Specifically, in this example, an ROC curve for determination based on the enzyme activity of ENPP determined based on the number of wells with 2500 AU or more is created, and when a threshold is subtracted at the time when the number of wells with 2500 AU or more is 23, the sensitivity is 83% and the specificity is 100% (FIG. 16). It is possible to determine pancreatic cancer by such an ROC curve.

ENPP3 [2] = target: T3, ENPP3; assay: Activity measurement using a purified enzyme of ENPP3 on a plate reader; settings: Tris-HCl buffer pH 9.3, 1 mM MgCl2, 0.5% CHAPS, 10 μM probe, ENPP3 9.9 μg/mL
Experimental: The activity measurement of PMUM-dCMP obtained in Synthesis Example 7 was performed using a purified enzyme of ENPP3 on a plate reader.
The assay was performed with a Tris-HCl buffer (pH 9.3) containing 1 mM MgCl2, 0.5% w/w CHAPS, 10 μM PMUM-dCMP, and ENPP3 (recombinant, 9.9 μg/mL).

[3] = threshold: number of wells with 2500 AU or more is 23

T1 sequence (P15144 whole entry): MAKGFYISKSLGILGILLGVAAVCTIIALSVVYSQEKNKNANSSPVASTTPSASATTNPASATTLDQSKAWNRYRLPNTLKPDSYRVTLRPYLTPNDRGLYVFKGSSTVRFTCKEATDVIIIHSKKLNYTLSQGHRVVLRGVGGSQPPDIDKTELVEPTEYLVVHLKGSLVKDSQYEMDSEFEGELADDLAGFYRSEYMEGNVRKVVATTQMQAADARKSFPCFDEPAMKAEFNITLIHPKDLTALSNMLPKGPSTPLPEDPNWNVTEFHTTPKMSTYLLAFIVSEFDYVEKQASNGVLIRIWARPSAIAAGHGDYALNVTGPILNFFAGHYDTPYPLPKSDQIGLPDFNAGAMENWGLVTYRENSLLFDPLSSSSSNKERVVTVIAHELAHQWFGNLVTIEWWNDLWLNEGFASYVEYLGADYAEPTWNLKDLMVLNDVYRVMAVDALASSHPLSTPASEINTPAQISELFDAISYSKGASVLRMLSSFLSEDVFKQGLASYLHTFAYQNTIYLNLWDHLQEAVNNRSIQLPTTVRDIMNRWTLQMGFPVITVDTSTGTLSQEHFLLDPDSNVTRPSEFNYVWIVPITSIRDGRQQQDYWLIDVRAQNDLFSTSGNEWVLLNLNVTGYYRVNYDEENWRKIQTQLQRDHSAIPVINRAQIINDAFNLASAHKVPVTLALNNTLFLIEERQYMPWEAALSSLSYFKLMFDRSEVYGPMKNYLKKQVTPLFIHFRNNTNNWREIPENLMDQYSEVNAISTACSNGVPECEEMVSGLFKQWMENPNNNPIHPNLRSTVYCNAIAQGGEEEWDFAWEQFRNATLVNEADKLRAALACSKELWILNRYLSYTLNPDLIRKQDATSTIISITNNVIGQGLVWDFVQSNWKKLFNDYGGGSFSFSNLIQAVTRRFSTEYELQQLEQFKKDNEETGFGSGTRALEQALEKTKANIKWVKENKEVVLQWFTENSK
T2 sequence (P27487 39-766 limits assumed): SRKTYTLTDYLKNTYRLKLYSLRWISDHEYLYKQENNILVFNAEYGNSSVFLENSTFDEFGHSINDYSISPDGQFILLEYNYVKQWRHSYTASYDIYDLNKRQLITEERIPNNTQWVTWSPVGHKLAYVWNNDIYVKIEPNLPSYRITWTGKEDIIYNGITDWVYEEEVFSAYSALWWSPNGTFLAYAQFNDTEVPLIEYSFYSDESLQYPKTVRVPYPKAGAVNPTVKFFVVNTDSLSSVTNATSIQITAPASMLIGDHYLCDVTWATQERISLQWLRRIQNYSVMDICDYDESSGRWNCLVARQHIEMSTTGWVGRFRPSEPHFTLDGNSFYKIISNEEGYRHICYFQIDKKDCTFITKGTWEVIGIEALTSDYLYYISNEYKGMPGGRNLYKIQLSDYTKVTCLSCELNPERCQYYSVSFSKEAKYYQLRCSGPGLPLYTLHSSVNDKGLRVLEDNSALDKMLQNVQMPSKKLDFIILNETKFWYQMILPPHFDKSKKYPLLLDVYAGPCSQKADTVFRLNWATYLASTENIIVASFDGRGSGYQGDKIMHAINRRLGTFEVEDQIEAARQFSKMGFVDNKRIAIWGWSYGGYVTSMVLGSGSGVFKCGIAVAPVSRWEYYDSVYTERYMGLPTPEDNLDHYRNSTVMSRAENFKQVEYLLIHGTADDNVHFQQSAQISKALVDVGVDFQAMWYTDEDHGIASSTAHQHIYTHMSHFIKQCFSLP

- Fluorescence intensity of human plasma samples, patient with pancreatic cancer compared with healthy subject (CD13 probe) (CD13): a significant difference was observed
- AUC of ROC curve for the number of wells in which CD13 is considered to be enclosed (CD13): 0.554
SMILES: N=C(N)NCCC[C@H](N)C(=O)Nc1ccc2c(CP(=O)(O)O)cc(=O)oc2c1 [Arg-PMAC]

- Fluorescence intensity of human plasma samples, patient with pancreatic cancer compared with healthy subject (DPP4 probe) (DPP4; microdevice): a significant difference was observed
- AUC of ROC curve for the ratio of the number of wells belonging to the two peaks (DPP4 considered enclosed) (DPP4; plasma of 30 patients with pancreatic cancer vs 30 healthy subjects, 25° C. 2 hours): 0.724
SMILES: N[C@@H](CCC(=O)O)C(=O)N1CCC[C@@H]1C(=O)Nc1ccc2c(CP(=O)(O)O)cc(=O)oc2c1 [Glu-Pro-PMAC]

- Fluorescence intensity of human plasma samples, patient with pancreatic cancer compared with healthy subject (CD13 probe) (CD13): a significant difference was observed
- AUC of ROC curve for the number of wells in which CD13 is considered to be enclosed (CD13): 0.619
SMILES: CSCC[C@H](N)C(=O)Nc1ccc2c(CP(=O)(O)O)cc(=O)oc2c1 [Met-PMAC]

SMILES: NC1C=CN(C2CC(O)C(COP(=O)(O)Oc3ccc4c(CP(=O)(O)O)cc(=O)oc4c3)O2)C(=O)N1 (centres unmarked) [PMUM-dCMP]
- Fluorescence intensity of human plasma samples, patient with pancreatic cancer compared with healthy subject (ENPP probe) (ENPP3 [1]; microdevice, 100 μM probe, 500 fold dilution plasma): a significant difference was observed
- Number of wells with fluorescence intensity equal to or higher than 2500 AU, patients with pancreatic cancer compared with healthy subjects (ENPP3 [1]; plasma of six patients and six healthy subjects, 100 μM probe, 500 fold dilution plasma, 25° C. 40 minutes): significant increase in the number of wells
- Sensitivity of ROC determination of pancreatic cancer (ENPP3 [1]; [3]): 83%
- Specificity of ROC determination of pancreatic cancer (ENPP3 [1]; [3]): 100%
- Fluorescence intensity (FI) on adding ENPP3 compared with adding no ENPP3 (ENPP3 [2]): remarkable increase in fluorescence intensity
